Measurements from patent US20250376662A1, “FORWARD PROGRAMMED BLOOD-BRAIN BARRIER MODEL” (priority 2024, published 2025).

Test system: HUVECs
Assay: Gene expression in HUVECs treated with KLF2 lentivirus and CHIR99021
Type: cell-based, human
Procedure: RNA was extracted using Direct-zol RNA Miniprep kit (Zymo, R2050). Reverse transcription was performed to obtain cDNA using GoScript Reverse Transcriptase with Oligo (dT) kit (Promega, A2791). Real-time gene expression analysis was conducted using 25-μl reactions containing SYBR Green PCR Master Mix (Life Technologies, 4309155) along with primers specific for gene of interests (Table 2). PCR was run according to manufacturer protocols on Agilent AriaMX Real-Time PCR system.
Recognizing the strong effect of KLF2 or KLF4 overexpression on BBB gene expression, explored whether activated Wnt signaling impacted the ability of KLF overexpression to modulate BBB gene expression. […] This finding indicates a synergistic effect of these two pathways in inducing BBB gene expression. […] Such shifts in Wnt TF expression have been reported to be correlated with β-catenin levels, and represents higher canonical Wnt activities (Guo et al. 2021). Thus, to further assess the canonical Wnt signaling activation, we used an hPSC Wnt reporter line, H9 7TGP. The engineered 7TGP line expresses GFP under the control of a consensus TCF/LEF binding sequence promoter that reports canonical Wnt/β-catenin signaling activation (Lian et al. 2012; Fuerer and Nusse 2010). […] To assess whether these factors induce BBB gene expression in primary EC, we treated.

## Cc1c[nH]c(-c2cnc(NCCNc3ccc(C#N)cn3)nc2-c2ccc(Cl)cc2Cl)n1 [CHIR99021]
  expression of Wnt signaling TF transcripts LEF1 and TCF7: significantly increased the expression
